Results published in patent US6326465A, “Immunomodulatory polypeptides derived from the invariant chain of MHC class II” (The Johns Hopkins University, priority 1998, dated 2001).

Legend:
tumor cells = experiment: Cytokine modulation of CsA-induced SGVHD in the rat model; type: in vivo; conditions: for cure of animals: animals given 5×10^3 tumor cells; for enhancement of the antitumor effect of SGVHD: rat model
CRL 1662 myeloma cells = experiment: Antitumor activity after adoptive transfer of syngeneic GVHD effector T cells; type: in vivo, rat; conditions: with syngeneic GVHD effector cells; […]10^4 CRL 1662 cells; cytokines for ten days
Experimental: Nylon wool nonadherent spleen cells (50×10^6) from Lou M animals with syngeneic GVHD were adoptively transferred into secondary Lou M recipients (irradiated, bone marrow reconstituted) challenged with 2.5×10^4 CRL 1662 myeloma cells. […] Survival was assessed and log tumor cell kill was estimated from dose response studies (see Table 6).

[1] = test system: Lewis syngeneic PHA blasts; experiment: Lysis of PHA lymphoblast target cells by syngeneic GVHD effector T cells; type: cell-based, rat; conditions: target cells loaded with 10 uM; versus diluent treated target cells
Experimental: FIG. 1. Graph showing comparison of percent specific lysis conferred by truncated variants of CLIP. Lewis syngeneic PHA blasts were force-loaded with the truncated variants of CLIP (10 μmol/L, 1 hr, 4° C.) prior to assay. Effector T cells (nylon wool nonadherent) were derived from animals with syngeneic GVHD that were clonally expanded in thymectomized secondary Lewis recipients.
Truncated peptides from the rat MHC Class II invariant chain V0 : (sequence aa 82-103 […] (SEQ ID NO:1)), V1: aa 90-104 (SEQ ID NO:2), V2: 86-100 (SEQ ID NO:3), V3: 90-100(SEQ ID NO:4) were synthesized by Quality Controlled Biochemicals Co. (Hopkinton, Ma.) and purified by HPLC.^15,23 The peptides (>92% purity) were dissolved in RPMI 1640 prior to use. Force loading of CLIP was accomplished by incubating the cells in 10 μM of the peptide for 1 hr. at 4° C. […] Antibody was prepared to the CLIP peptide by Quality Controlled Biochemicals Co. The peptides were conjugated to keyhole limpet hemocyanin (KLH). Rabbits were immunized with the peptide-KLH conjugate. The antibody was affinity purified using peptide conjugated sepharose matrix columns.
We first evaluated whether CLIP in rats is recognized by the autoreactive T cells associated with CsA-induced syngeneic GVHD by comparing the lysis of target cells after various pretreatment conditions.
Target cells were loaded with the CLIP variants (10 uM) and evaluated for […]

target cells = type: cell-based, rat

Substance: interferon-α
- cure of animals (tumor cells): about half
- enhancement of the antitumor effect of SGVHD (tumor cells): 1-2 logs

Substance: γ-interferon: cytokine, 50,000 U/d
- Estimated Log Tumor Cell Kill (CRL 1662 myeloma cells): 2.5-3.0
- cure of animals (tumor cells): about half
- enhancement of the antitumor effect of SGVHD (tumor cells): 1-2 logs

Substance: KPCSP(R)
- Enhancement of Target Cell Recognition [1]: +++ (enhancement representing at least a >25% increase in specific killing)

Substance: staphylococcal enterotoxin β [SEB]
- ability of effector T lymphocytes to recognize and lyse the target cells (target cells): completely inhibited
- preventing recognition and lysis (target cells): ineffective
